Measured values reported in PubChem BioAssay AID1259411 (Chemical Carcinogenesis Research Information System (CCRIS), 2018).
Activity calls are given as the source filed them. The rule behind the calls is not given here.

Tested on: rodent carcinogenicity bioassays, tumor incidence
Assay: CCRIS carcinogenicity studies
Conditions: Species: RAT
From the text: The CCRIS database contains chemical records with carcinogenicity, mutagenicity, tumor promotion, and tumor inhibition test results. It was developed by the National Cancer Institute (NCI). Data are derived from studies cited in primary journals, current awareness tools, NCI reports, and other sources. Test results have been reviewed by experts in carcinogenesis and mutagenesis.
CCRIS provides historical information from the years 1985 - 2011. It is no longer updated.
This is an archive assay for CCRIS carcinogenicity studies.

Measured: carcinogen call

[Cl][Cd][Cl]
active: Strain/Sex: WISTAR/FEMALE, Route: INHALATION, Dose: 0, 30 UG/M3 AEROSOL 22 HR/D 7 D/WK FOR 18 MO (STUDY DURATION: 31 MO), Tumor Site: Type of Lesion: LUNG: ALVEOLAR/BRONCHIOLAR ADENOMA, SQUAMOUS CELL CARCINOMA active; positive | Strain/Sex: WISTAR/FEMALE, Route: INHALATION, Dose: 0, 90 UG/M3 22 HR/D 7 D/WK FOR 6 MO (STUDY DURATION: 29 MO), Tumor Site: Type of Lesion: LUNG: ADENOCARCINOMA, SQUAMOUS CELL CARCINOMA active; positive | Strain/Sex: WISTAR/FEMALE, Route: INHALATION, Dose: 0, 90 UG/M3 22 HR/D 7 D/WK FOR 6 MO (STUDY DURATION: 29 MO), Tumor Site: Type of Lesion: LUNG: TUMOR active; positive | Strain/Sex: WISTAR/FEMALE, Route: INHALATION, Dose: 0, 90 UG/M3 AEROSOL 22 HR/D 7 D/WK FOR 6 MO (STUDY DURATION: 29 MO), Tumor Site: Type of Lesion: LUNG: ADENOCARCINOMA, SQUAMOUS CELL CARCINOMA active; positive | Strain/Sex: WISTAR/MALE, Route: INHALATION, Dose: 0, 12.5, 25, 50 UG/M3 AEROSOL 23 HR/D 7 D/WK FOR 18 MO (STUDY DURATION: 31 MO), Dose: 0, 12.5, 25, 50 UG/M3 AEROSOL 23 HR/D 7 D/WK FOR 18 MO (STUDY DURATION: 31 MO), Tumor Site: Type of Lesion: LUNG: ADENOMA, ADENOCARCINOMA, EPIDERMOID CARCINOMA active; positive | Strain/Sex: WISTAR/MALE, Route: INHALATION, Dose: 0, 30 MG/M3 AEROSOL 22 HR/D 7 D/WK FOR 18 MO (STUDY DURATION: 30 MO), Tumor Site: Type of Lesion: LUNG: ALVEOLAR/BRONCHIOLAR ADENOMA, ADENOCARCINOMA active; positive | Strain/Sex: WISTAR/MALE, Route: INHALATION, Dose: 0, 30 UG/M3 22 HR/D 7 D/WK FOR 18 MO (STUDY DURATION: 30 MO), Tumor Site: Type of Lesion: LUNG: ALVEOLAR/BRONCHIOLAR ADENOMA, ADENOCARCINOMA active; positive | Strain/Sex: WISTAR/MALE, Route: INHALATION, Dose: 0, 30 UG/M3 22 HR/D 7 D/WK FOR 18 MO (STUDY DURATION: 30 MO), Tumor Site: Type of Lesion: LUNG: TUMOR active; positive | Strain/Sex: WISTAR/MALE, Route: INHALATION, Dose: 0, 90 UG/M3 22 HR/D 7 D/WK FOR 6 MO (STUDY DURATION: 30 MO), Tumor Site: Type of Lesion: LUNG: ALVEOLAR/BRONCHIOLAR ADENOMA, ADENOCARCINOMA, SQUAMOUS CELL CARCINOMA active; positive | Strain/Sex: WISTAR/MALE, Route: INHALATION, Dose: 0, 90 UG/M3 22 HR/D 7 D/WK FOR 6 MO (STUDY DURATION: 30 MO), Tumor Site: Type of Lesion: LUNG: TUMOR active; positive | Strain/Sex: WISTAR/MALE, Route: INHALATION, Dose: 0, 90 UG/M3 AEROSOL 22 HR/D 7 D/WK FOR 6 MO (STUDY DURATION: 30 MO), Tumor Site: Type of Lesion: LUNG: ALVEOLAR/BRONCHIOLAR, ADENOCARCINOMA, SQUAMOUS CELL CARCINOMA active; positive | Strain/Sex: WISTAR/MALE, Route: SUBCUTANEOUS, Dose: 0, 0.03 MMOL/KG BW (5.5 MG/KG BW), SINGLE DOSE, Tumor Site: Type of Lesion: TESTES: INTERSTITIAL CELL TUMOR active; positive | Strain/Sex: WISTAR/MALE, Route: SUBCUTANEOUS, Dose: 0, 3 UMOL/KG BW ONCE, THEN 30 UMOL/KG BW 1X/WK FOR 17 WK BEGINNING 1 WK POST INITIAL DOSE (STUDY DURATION: 18 WK), Tumor Site: Type of Lesion: INJECTION SITE SARCOMA active; positive | Strain/Sex: WISTAR/MALE, Route: SUBCUTANEOUS, Dose: 0, 10, 20, 30 UMOL/KG BW 1X/WK FOR 18 WK (STUDY DURATION: 18 WK), Dose: 0, 10, 20, 30 UMOL/KG BW 1X/WK FOR 18 WK (STUDY DURATION: 18 WK), Tumor Site: Type of Lesion: INJECTION SITE SARCOMA active; positive | Strain/Sex: WISTAR/MALE, Route: SUBCUTANEOUS, Dose: 5.5 MG/KG ONCE, Tumor Site: Type of Lesion: INJECTION SITE: SARCOMA, TESTES: INTERSTITIAL CELL TUMOR active; positive | Strain/Sex: WISTAR, Route: SUBCUTANEOUS, Dose: 0, 0.03 MMOL/KG BW (5.5 MG/KG BW), SINGLE DOSE, OBSERVED 2 YR, Tumor Site: Type of Lesion: INJECTION SITE: SPINDLE CELL SARCOMA, TESTES: INTERSTITIAL CELL TUMOR active; positive | Strain/Sex: WISTAR, Route: SUBCUTANEOUS, Dose: 0, 0.03 MMOL/KG BW (5.5 MG/KG BW), SINGLE DOSE, Tumor Site: Type of Lesion: INJECTION SITE: SARCOMA, TESTES: INTERSTITIAL CELL TUMOR active; positive | Strain/Sex: WISTAR, Route: SUBCUTANEOUS, Dose: 0.02-0.03 MMOL/KG BW (3.7-5.5 MG/KG BW), SINGLE DOSE, Tumor Site: Type of Lesion: INJECTION SITE: FIBROSARCOMA, TESTES: INTERSTITIAL CELL TUMOR active; positive
